# Reference: patent publication US8802240B2, “Uses of formulations of thyroid hormone analogs and nanoparticulate forms thereof to increase chemosensitivity and radiosensitivity in tumor or cancer cells” (Nanopharmaceuticals LLC, priority 2011, dated 2014)
# Experiments:
# [1] = test system: medullary thyroid carcinoma cells implanted in CAM; test: CAM cancer implant model; assay type: in vivo, chick; settings: 1 μg/CAM; n = 8; P<0.01
# Description: The effect of Tetrac versus nanoparticulate Tetrac at 1.0 μg/CAM on tumor angiogenesis and tumor growth of 1×10^6 medullary thyroid carcinoma cells implanted in Matrigel in 7 day-old CAM's was determined 8 days after implantation. […] Data represent mean tumor weight (mg) and tumor hemoglobin (mg/dL)±SEM per treatment group, n=8 per group.
# [2] = test system: P-gp, GST and SOD in MCF7/R cells; test: Western blot of classical drug resistance genes; assay type: cell-based; settings: 24 h
# Description: (§1) FIG. 15A is a Western blofshowing the expression of P-gp, GST and SOD in wild type (W) drug sensitive and resistant (R) MCF7 cells. […] The cells were treated for 24 h with each drug alone or the combination of both, after that, expression of drug resistance molecules was determined by Western blot using specific antibodies. […] The cells were incubated for 24 hours with doxorubicin in the absence or the presence of Tetrac, after that they were washed and then solubilized. Radioactivity associated with the cell lysates was counted and compared between the two cell lines either treated or not with Tetrac. The data represent an average of 3 determinations±SE.
# GL261 cells [3] = test: GL261 potentially lethal damage repair (PLDR); assay type: cell-based, murine
# Description: PLDR was also measured using the 10% survival level in both control and Tetrac treated-cells, and was also done for both exponentially growing and plateau phase cells. The total 10% survival dose was given, and then cells were placed back into the 37° C. incubator for various periods of time. At 0, 0.5, 1.0, 1.5, 2.0, 3.0, 4.0, 6.0, 8.0, and 10.0 hours, flasks were removed, and processed for survival assessment.
# To investigate the effects of Tetrac on SLDR and PLDR, cells were chosen that had been given a one-hour treatment with Tetrac at two different times, i.e., at 70 and 270 hours post-seeding).
# Solubility = assay type: physicochemical; settings: required a high volume of cosolvent (DMSO)
# [4] = test system: human medullary carcinoma of the thyroid (MTC) xenograft; test: MTC xenograft in nude mice; settings: mouse, in vivo
# From the text: Water and food were provided ad libitum.
# MCF7 and MCF7/R cells = test: Intracellular accumulation of radiolabeled doxorubicin; assay type: cell-based; settings: 24 hours, presence vs absence of Tetrac
# Description: as §1
# [5] = test system: doxorubicin-resistant MCF7/R cells; test: Doxorubicin-resistant tumors in nude mice; assay type: in vivo
# Description: Mice were injected with doxorubicin-resistant MCF7/R cells (10^6) and after 10 days, they were assigned into groups of seven mice each and challenged with doxorubicin (2 mg/kg) or Tetrac (30 mg/kg) either alone or in combination. Tumor volume was measured every 3 days for up to three weeks.
# GL261 cells [6] = test: GL261 cell multiplicity after Tetrac exposure; assay type: cell-based, murine; settings: one hour exposure to Tetrac
# Description: Cell multiplicity (CM) was determined from Giemsa stained slides by counting the number of cells per microcolony under 20× magnification. At least 400 microcolonies were counted.
# The length of time that Tetrac biologically affected GL261 cells was also determined. To do this, the multiplicity relationship defined above was utilized. Tetrac was added to cells one hour prior to the determination of the multiplicity. After the exposure of exponentially growing GL261 cells to Tetrac, the Tetrac containing medium was removed from GL261 cells, which contained an unknown residual and fresh medium (without Tetrac) was added. As a function of time (i.e., 0, 1, 2, 3, 4, 6, 8, and 10 hours, and 1-6 days), the cells, containing an unknown residual amount of remaining Tetrac, were then processed for determination of the multiplicity index (i.e. the number of cells per microcolony).
# [7] = test system: matrigel plug angiogenesis; test: Mouse matrigel model of angiogenesis (plug hemoglobin); assay type: in vivo, mice (C57BL/6NCr)
# Description: Normal male mice (C57BL/6NCr) 6-8 weeks of age and weighing ˜20 g were purchased from Taconic farm. Animals were housed 4 per cage, in controlled conditions of temperature (20-24° C.); humidity (60-70%) and 12 hrs. light/dark cycle provided with food and water ad libitum. […] Aliquots of matrigel were placed into cold polypropylene tubes to prevent the matrigel from solidifying and the angiogenesis promoter added to matrigel with or without agonist. Mice were treated daily. Matrigel was subcutaneously injected as triple injection per animal at 100 μL/animal. At day 14 post plug implant all animals were killed in CO2 chamber and matrigel plugs were collected. Plug hemoglobin content was analyzed from three implants/mice (n=6 per group) to measure angiogenesis.
# The matrigel plugs dissected from the mice were carefully stripped of any remaining peritoneum. The plugs were placed into 0.5 mL tube of ddH2O and homogenized for 5-10 min. […] Absorbance was read with a Microplate Manager ELISA reader at 540 nm. […] Hemoglobin concentration is a reflection of the number of blood vessels in the plugs.
smiles,measurement,setting,value
"O=C(O)Cc1cc(I)c(Oc2cc(I)c(O)c(I)c2)c(I)c1 [Tetrac, tetraiodothyroacetic acid]",tumor growth (in words),[1],effective inhibition
same,tumor-mediated angiogenesis (in words),[1],significant inhibition
same,"expression of P-glycoprotein, SOD and GST-π (in words)",[2],none of these genes was significantly altered
same,inhibition of PLDR by a factor of,GL261 cells [3]; exponential cells,1.9
same,decrease of PLDR expression by a factor of,GL261 cells [3]; plateau phase cells,3.4
same,solubility in water (in words),Solubility,difficult to solubilize in water
same,mortality (in words),[4],no mortality
same,intracellular accumulation of radiolabeled doxorubicin (in words),MCF7 and MCF7/R cells,increased significantly
same,toxic effect (in words),[5]; Tetrac 30 mg/kg,without any noticeable toxic effect
same,doxorubicin-sensitivity in vivo (in words),[5]; Tetrac 30 mg/kg with doxorubicin 2 mg/kg,not restored
same,growth of doxorubicin-resistant tumors (in words),"[5]; Tetrac 30 mg/kg, up to three weeks",effective in suppressing the growth of drug resistant tumors
same,time for a 50% return of the cell multiplicity factor towards control,GL261 cells [6],approximately 2.5 days
same,time post Tetrac treatment at which the decrease in the CM factor was at 50%,GL261 cells [6],60 h
same,inhibition in vivo at 10 µg/plug,"[7]; Mus musculus, FGF 100 ng + test substance 10 μg/plug, numbers are Tetrac analogs of Example 13",90 ± 13%
same,inhibition of FGF induced angiogenesis,[7]; Tetrac 10 μg,85%
